This is an account of results in patent US9938258B2 (Karyopharm Therapeutics Inc., priority 2012, dated 2018).

Read-outs that look alike come from different tables or passages of the source.

One assay has as its system MS751 cells. As to the kind of experiment: MTT cell proliferation assay, MS751. The assay is classed as cell-based, human. Conditions: Homo sapiens. As for the experimental part:
(§1) The MTT cell proliferation assay was used to study the cytotoxic properties of the compounds. The assay was performed according to the method described by Roche Molecular Biochemicals, with minor modifications. The assay is based on the cleavage of the tetrazolium salt, MTT, in the presence of an electron-coupling reagent. The water-insoluble formazan salt produced must be solubilized in an additional step. Cells grown in a 96-well tissue culture plate were incubated with the MTT solution for approximately 4 hours. After this incubation period, a water-insoluble formazan dye formed. After solubilization, the formazan dye was quantitated using a scanning multi-well spectrophotometer (ELISA reader). […] The cells were seeded at 5,000-10,000 cells in each well of 96-well plate in 100 μL of fresh culture medium and were allowed to attach overnight. The stock solutions of the compounds were diluted in 100 μL cell culture medium to obtain eight concentrations of each test compound, ranging from 1 nM to 30 μM. […] All optical densities were measured at 490 nm using a Vmax Kinetic Microplate Reader (Molecular Devices). In most cases, the assay was performed in duplicate and the results were presented as a mean percent inhibition to the negative control±SE. The following formula was used to calculate the percent of inhibition: Inhibition (%)=(1-(ODo/OD)) ×100.
(§2) The compounds were tested against MS751, Z138 and 3T3 cells. The MS751 cell line is derived from a metastasis to lymph node of human cervix from a patient diagnosed with squameous cell carcinoma of the cervix. The Z138 cell line is a mature B-cell acute lymphoblastic leukemia cell line derived from a patient with chronic lumphocytic leukemia. 3T3 cells are standard fibroblast cells; they were originally isolated from Swiss mouse embryo tissue.

The subject of the next assay is Z138 cells. As to the kind of experiment: MTT cell proliferation assay, Z138. The assay is classed as cell-based. As to conditions: Homo sapiens. The method, then:
as §1, §2

A further assay relates to 3T3 cells. Briefly: MTT cell proliferation assay, 3T3. As to conditions: Mus musculus. The assay is classed as cell-based, mouse. As for the experimental part:
as §1, §2

Setting [1] is: MS751, MS751 cells, eight concentrations 1 nM to 30 μM, incubation approximately 64-72 hours, read-out: MTT Assay IC50, MS751.
Setting [2] is: Z-138, Z138 cells, eight concentrations 1 nM to 30 μM, incubation approximately 64-72 hours, read-out: MTT Assay IC50, Z138.
The mark [3] stands for this setting: NIH3T3, 3T3 cells, eight concentrations 1 nM to 30 μM, incubation approximately 64-72 hours, read-out: MTT Assay IC50, 3T3.
The mark [4] stands for this setting: MS751, MS751 cells, approximately 64-72 hours incubation, read-out: MTT Assay IC50, MS751.
The mark [5] stands for this setting: Z-138, Z138 cells, approximately 64-72 hours incubation, read-out: MTT Assay IC50, Z138.
[6] abbreviates: NIH3T3, 3T3 cells, approximately 64-72 hours incubation, read-out: MTT Assay IC50, 3T3.

Consider `CC(=O)c1ccc(-c2cc(Cl)c3c(c2)CC(CNC(=O)/C=C/c2cc(C)on2)O3)s1` (stereo not drawn) [Compound 277, (E)-N-((5-(5-acetylthiophen-2-yl)-7-chloro-2,3-dihydrobenzofuran-2-yl)methyl)-3-(5-methylisoxazol-3-yl)acrylamide], for which the IC50 in the assay with MS751 cells (setting [1]) is 0.1 to 5 µM; in the assay with Z138 cells (setting [2]), over 30 µM; in the assay on 3T3 cells (setting [3]) it was over 30 µM.
On to `CC(=O)c1ccc(-c2cc(Cl)c3c(c2)CC(CNC(=O)/C=C/c2cnc(C)s2)O3)s1` (stereo not drawn) [Compound 148, (E)-N-((5-(5-acetylthiophen-2-yl)-7-chloro-2,3-dihydrobenzofuran-2-yl)methyl)-3-(2-methylthiazol-5-yl)acrylamide], for which the values for the IC50 with MS751 cells (setting [1]), with Z138 cells (setting [2]) and with 3T3 cells (setting [3]) were 5 to 30 µM, over 30 µM and over 30 µM, respectively.
As for `CC(=O)c1ccc(-c2cc(Cl)c3c(c2)CC(CNC(=O)/C=C/c2c(C)nc4sc(C)cn24)O3)s1` (stereo not drawn) [Compound 161, (E)-N-((5-(5-acetylthiophen-2-yl)-7-chloro-2,3-dihydrobenzofuran-2-yl)methyl)-3-(2,6-dimethylimidazo[2,1-b]thiazol-5-yl)acrylamide], the IC50 in the assay on MS751 cells (setting [1]), in the assay on Z138 cells (setting [2]) and in the assay with 3T3 cells (setting [3]) was over 30 µM throughout.
For `CC(=O)c1ccc(-c2cc(Cl)c3c(c2)CC(CNC(=O)/C=C/c2cc[nH]c2)O3)s1` (stereo not drawn) [Compound 153, (E)-N-((5-(5-acetylthiophen-2-yl)-7-chloro-2,3-dihydrobenzofuran-2-yl)methyl)-3-(1H-pyrrol-3-yl)acrylamide], the IC50 with MS751 cells (setting [1]), with Z138 cells (setting [2]) and in the assay on 3T3 cells (setting [3]) was over 30 µM each time.
With `Nc1ccc(CNC(=O)/C=C/C2Cc3c(-c4ccc(S(=O)(=O)N5CCOCC5)cc4)ccc(Cl)c3O2)cn1` (stereo not drawn) [Compound 364, (E)-N-((6-aminopyridin-3-yl)methyl)-3-(7-chloro-4-(4-(morpholinosulfonyl)phenyl)-2,3-dihydrobenzofuran-2-yl)acrylamide], the 50% inhibitory concentration (IC50) is 0.1 to 5 µM in the assay with MS751 cells (setting [4]), over 30 µM in the assay on Z138 cells (setting [5]) and 5 to 30 µM in the assay on 3T3 cells (setting [6]).
On to `CC(=O)Nc1ccc(/C=C/C(=O)NCC2Cc3cc(-c4ccc(C(C)=O)s4)cc(Cl)c3O2)cn1` (stereo not drawn) [Compound 315, (E)-3-(6-acetamidopyridin-3-yl)-N-((5-(5-acetylthiophen-2-yl)-7-chloro-2,3-dihydrobenzofuran-2-yl)methyl)acrylamide], for which the 50% inhibitory concentration (IC50) in the assay on MS751 cells (MS751, read-out: MTT Assay IC50, MS751) was over 30 µM; in the assay on Z138 cells (Z-138, read-out: MTT Assay IC50, Z138), over 30 µM; in the assay with 3T3 cells (NIH3T3, read-out: MTT Assay IC50, 3T3) it was over 30 µM.
For `CC(=O)c1ccc(-c2cc(Cl)c3c(c2)CC(CNC(=O)/C=C/c2ccc[n+]([O-])c2)O3)s1` (stereo not drawn) [Compound 28, (E)-N-((5-(5-acetylthiophen-2-yl)-7-chloro-2,3-dihydrobenzofuran-2-yl)methyl)-3-(pyridine-1-oxide-3-yl)acrylamide], the IC50 with MS751 cells (setting [1]), in the assay on Z138 cells (setting [2]) and with 3T3 cells (setting [3]) was over 30 µM each time.
On to `CC(=O)c1ccc(-c2cc(Cl)c3c(c2)CC(CNC(=O)/C=C/c2nc4ccccc4s2)O3)s1` (stereo not drawn) [Compound 190, (E)-N-((5-(5-acetylthiophen-2-yl)-7-chloro-2,3-dihydrobenzofuran-2-yl)methyl)-3-(benzo[d]thiazol-2-yl)acrylamide], for which the IC50 with MS751 cells (setting [1]), with Z138 cells (setting [2]) and in the assay on 3T3 cells (setting [3]) was over 30 µM in each case.
On to `CC(=O)c1ccc(-c2cc(Cl)c3c(c2)CC(CNC(=O)/C=C/n2cncn2)O3)s1` (stereo not drawn) [Compound 229, (E)-N-((5-(5-acetylthiophen-2-yl)-7-chloro-2,3-dihydrobenzofuran-2-yl)methyl)-3-(1H-1,2,4-triazol-1-yl)acrylamide], for which the IC50 in the assay with MS751 cells (setting [4]), with Z138 cells (setting [5]) and in the assay with 3T3 cells (setting [6]) was over 30 µM in each case.
As to `Nc1ccc(/C=C/C(=O)NCC2Cc3cc(-c4ccc(C(=O)N5CCCCC5)cc4)cc(Cl)c3O2)cn1` (stereo not drawn) [Compound 234, (E)-3-(6-aminopyridin-3-yl)-N-((7-chloro-5-(4-(piperidine-1-carbonyl)phenyl)-2,3-dihydrobenzofuran-2-yl)methyl)acrylamide], the IC50 in the assay with MS751 cells (setting [4]) is under 0.1 µM; in the assay on Z138 cells (setting [5]), under 0.1 µM; in the assay with 3T3 cells (setting [6]), 5 to 30 µM.
On to `CC(=O)c1ccc(-c2cc(F)c3c(c2)CC(CNC(=O)/C=C/c2cccnc2)O3)s1` (stereo not drawn) [Compound 87, (E)-N-((5-(5-acetylthiophen-2-yl)-7-fluoro-2,3-dihydrobenzofuran-2-yl)methyl)-3-(pyridin-3-yl)acrylamide], for which the IC50 with MS751 cells (setting [1]), with Z138 cells (setting [2]) and in the assay on 3T3 cells (setting [3]) was 0.1 to 5 µM in each case.
On to `CC(O)c1ccc(-c2cc(Cl)c3c(c2)CC(CNC(=O)/C=C/c2cccnn2)O3)s1` (stereo not drawn) [Compound 307], for which the IC50 in the assay with MS751 cells (setting [4]), in the assay on Z138 cells (setting [5]) and with 3T3 cells (setting [6]) was 0.1 to 5 µM throughout.
For `Nc1ccc(CNC(=O)/C=C/C2Cc3cc(-c4cccc(S(=O)(=O)N5CCOCC5)c4)cc(Cl)c3O2)cn1` (stereo not drawn) [Compound 357, (E)-N-((6-aminopyridin-3-yl)methyl)-3-(7-chloro-5-(3-(morpholinosulfonyl)phenyl)-2,3-dihydrobenzofuran-2-yl) acrylamide], the IC50 in the assay on MS751 cells (setting [4]) was under 0.1 µM; in the assay with Z138 cells (setting [5]) it was 0.1 to 5 µM; with 3T3 cells (setting [6]), under 0.1 µM.
With `O=C(/C=C/c1cccnc1)NCC1Cc2cc(-c3ccc(C(=O)O)cc3)cc(Cl)c2O1` (stereo not drawn) [Compound 129, (E)-4-(7-chloro-2-((3-(pyridin-3-yl)acrylamido)methyl)-2,3-dihydrobenzofuran-5-yl)benzoic acid], the IC50 in the assay with MS751 cells (setting [1]), with Z138 cells (setting [2]) and with 3T3 cells (setting [3]) was 5 to 30 µM throughout.
`O=C(/C=C/c1cccnc1)NCC1Cc2cc(-c3ccco3)cc(Cl)c2O1` (stereo not drawn) [Compound 42, (E)-N-((7-chloro-5-(furan-2-yl)-2,3-dihydrobenzofuran-2-yl)methyl)-3-(pyridin-3-yl)acrylamide]: the IC50 with MS751 cells (setting [1]) was 0.1 to 5 µM; in the assay on Z138 cells (setting [2]), 0.1 to 5 µM; in the assay with 3T3 cells (setting [3]), 5 to 30 µM.
Take `CC(=O)c1ccc(-c2cc(Cl)c3c(c2)CC(CNC(=O)/C=C/c2cc4cnn(C(C)C)c4[nH]c2=O)O3)s1` (stereo not drawn) [Compound 289, (E)-N-((5-(5-acetylthiophen-2-yl)-7-chloro-2,3-dihydrobenzofuran-2-yl)methyl)-3-(1-isopropyl-6-oxo-6,7-dihydro-1H-pyrazolo[3,4-b]pyridin-5-yl)acrylamide]: the IC50 in the assay with MS751 cells (setting [4]) was 5 to 30 µM; in the assay with Z138 cells (setting [5]) it was 0.1 to 5 µM; in the assay on 3T3 cells (setting [6]), over 30 µM.
The corresponding values for `Nc1ccc(/C=C/C(=O)NCC2Cc3cc(-c4cnc(C(=O)N5CCOCC5)c(Cl)c4)cc(Cl)c3O2)cn1` (stereo not drawn) [Compound 326, (E)-3-(6-aminopyridin-3-yl)-N-((7-chloro-5-(5-chloro-6-(morpholine-4-carbonyl)pyridin-3-yl)-2,3-dihydrobenzofuran-2-yl)methyl)acrylamide] are 0.1 to 5 µM, under 0.1 µM and 5 to 30 µM.
`CC(=O)c1ccc(-c2cc(Cl)c3c(c2)CC(CN)O3)s1` (stereo not drawn) [Compound 26]: the IC50 in the assay with MS751 cells (setting [1]), in the assay with Z138 cells (setting [2]) and in the assay on 3T3 cells (setting [3]) was 5 to 30 µM each time.
`Nc1ccc(CNC(=O)/C=C/C2Cc3c(-c4ccc(C(=O)N5CC(F)C5)cc4)ccc(Cl)c3O2)cn1` (stereo not drawn) [Compound 352, (E)-N-((6-aminopyridin-3-yl)methyl)-3-(7-chloro-4-(4-(3-fluoroazetidine-1-carbonyl)phenyl)-2,3-dihydrobenzofuran-2-yl)acrylamide]: the IC50 was 0.1 to 5 µM in the assay with MS751 cells (setting [4]), over 30 µM with Z138 cells (setting [5]) and 5 to 30 µM in the assay on 3T3 cells (setting [6]).
Take `CS(=O)(=O)c1cncc(-c2cc(Cl)c3c(c2)CC(CNC(=O)/C=C/c2cccnc2)O3)c1` (stereo not drawn) [Compound 77, (E)-N-((7-chloro-5-(5-(methylsulfonyl)pyridin-3-yl)-2,3-dihydrobenzofuran-2-yl)methyl)-3-(pyridin-3-yl)acrylamide]: the IC50 in the assay with MS751 cells (setting [1]), with Z138 cells (setting [2]) and in the assay with 3T3 cells (setting [3]) was 0.1 to 5 µM throughout.
`CC(=O)c1ccc(-c2cc(Cl)c3c(c2)CC(CNC(=O)/C=C/c2[nH]cnc2C)O3)s1` (stereo not drawn) [Compound 212, (E)-N-((5-(5-acetylthiophen-2-yl)-7-chloro-2,3-dihydrobenzofuran-2-yl)methyl)-3-(4-methyl-1H-imidazol-5-yl)acrylamide]: the IC50 with MS751 cells (setting [4]) was 5 to 30 µM; with Z138 cells (setting [5]), 5 to 30 µM; with 3T3 cells (setting [6]), over 30 µM.
